Experimental data as given in US20070218456A1, “CELLULAR ASSAYS FOR SIGNALING RECEPTORS” (INVITROGEN CORPORATION, priority 2006, published 2007).
Converted amounts (≈) assume the structure as drawn.

Tested on: T-REx™-G2A-NFAT-bla Freestyle™293F cells
Assay: T-REx G2A NFAT-bla Freestyle 293F beta-lactamase reporter assay (inducer dose response)
Conditions: for EC50: Homo sapiens, FreeStyle 293-F
Description: In order to control the levels of G2A expression, G2A was placed under the control of an inducible promoter using Invitrogen's T-REx™ system. To again assess feasibility, pcDNA 5 G2A/TO was transiently transfected into CRE-bla Freestyle™ and NFAT-bla Freestyle™ cell lines stably expressing the T-REx™ Tet repressor plasmid (pcDNA6/TR; e.g., catalog# V1025-20, Invitrogen, Carlsbad, Calif.). The transfected cells were then treated with 10 ug/mL, 1 ug/mL, or 100 ng/mL tetracycline for 24 h to induce G2A expression. […] Stable pools of cells were created in both the TR CRE-bla and TR NFAT-bla Freestyle™293F backgrounds.
Stimulation Kinetics—Selected pools of both CRE-bla and NFAT-bla T-REx™ G2A Freestyle™ cells were stimulated with tetracycline for 3, 4, 5, or 24 h and loaded for 2 h with 1 μM LiveBLAzer™-FRET B/G substrate.
To improve the balance between tetracycline-induced signaling and cell death by testing shorter induction times, lower tetracycline concentrations and altered culture conditions were utilized to promote cell health. A 16 h tetracycline stimulation time was attempted on the pools from the first sort. Cells were plated at 10,000 cells/well 24 hours prior to assay in DMEM+10% dFBS and incubated at 37° C./5% CO2 until time of assay. The cells were stimulated for 16 hours (e.g., overnight) with a dilution series of the tetracycline. Following stimulation, the cells were loaded for 2 hours at room temperature in the dark with LiveBLAzer™-FRET B/G loading solution containing 1 μM substrate. This assay was done in Poly-D-Lysine coated plates.
Since G2A has no known agonists, doxycycline and tetracycline were compared as inducers of the assay. An antibiotic selected pool of cells were plated at 10,000 cells/well 24 hours prior to assay in DMEM+10% dFBS and incubated at 37° C./5% CO2 until time of assay. The cells were stimulated with a dilution series of each compound for 16 hours at 37° C./5% CO2 and loaded for 2 hours at room temperature in the dark with LiveBLAzer™-FRET B/G loading solution containing 1 μM substrate.
Cell Density/well—The influence of cell-plating density on assay performance was tested to find the density giving the best response and Z′ while maintaining the expected pharmacology. Cells were plated 24 hours prior to the assay at the densities indicated in FIG. 14 in DMEM+10% dFBS and incubated at 37° C./5% CO2 until the time of assay. The cells were stimulated for 16 hours at 37° C./5% CO2 with a dilution series of the doxycycline. After incubation, the cells were loaded for 2 hours at room temperature in the dark with LiveBLAzer™-FRET B/G loading solution containing 1 μM substrate.
DMSO Tolerance—Tests were performed related to assay performance as a function of DMSO concentration to determine the robustness of the assay to the range of DMSO challenge routinely encountered during high-throughput screening. Dose response curves were performed in the presence of 0%, 0.25%, 0.5%, or 1% DMSO. Cells were plated at 10,000 cells/well 24 hours prior to assay in DMEM+10% dFBS and incubated at 37° C./5% CO2 until time of assay. After incubation, DMSO was added to the wells to final concentrations of 0%, 0.25%, 0.5% and 1% DMSO. The cells were stimulated for 16 hours with a dilution series of the doxycycline. Following stimulation, the cells were loaded for 2 hours at room temperature in the dark with LiveBLAzer™-FRET B/G loading solution containing 1 μM substrate.
The substrate loading times were varied to find the time for an optimal assay performance. Cells were plated at 10,000 cells/well 24 hours prior to assay in DMEM+10% dFBS and incubated at 37° C./5% CO2 until time of assay. After incubation, DMSO was added to the wells to final concentration of 0.5%.

[1] = 60 min substrate loading, 10,000 cells/well, 0.5% DMSO, 16 h
[2] = 90 min substrate loading, 10,000 cells/well, 0.5% DMSO, 16 h
[3] = 120 min substrate loading, 10,000 cells/well, 0.5% DMSO, 16 h
[4] = representative data, 16 h, 0.5% DMSO, 2 h loading

For C[C@H]1c2cccc(O)c2C(=O)C2=C(O)[C@]3(O)C(=O)C(C(N)=O)=C(O)[C@@H](N(C)C)[C@@H]3[C@@H](O)[C@@H]21 [Doxycycline], the “RR (Max)” value (0.0% DMSO, 10,000 cells/well, 16 h) was 6.9, the “RR (Max)” value (0.25% DMSO, 10,000 cells/well, 16 h) was 7.2 and the “RR (Max)” value (0.50% DMSO, 10,000 cells/well, 16 h) was 6.5. For the same compound, the “RR (Max)” value (1.00% DMSO, 10,000 cells/well, 16 h) was 5.4, the “RR (Max)” value (1,250 cells/well, clone #20, 16 h, 0.5% DMSO) was 3.51 and the “RR (Max)” value (2,500 cells/well, clone #20, 16 h, 0.5% DMSO) was 4.8. The “RR (Max)” value [1] was 4.5, the “RR (Max)” value (5,000 cells/well, clone #20, 16 h, 0.5% DMSO) was 5.93 and the “RR (Max)” value [2] was 6.5. The “RR (Max)” value [3] was 6.5, the “RR (Max)” value (10,000 cells/well, clone #20, 16 h, 0.5% DMSO) was 7.7 and the “RR (Max)” value (Average of DR 1-3) was 5.77. The “RR (Max)” value (DR 1 (reproducibility, separate day)) was 5.36, the “RR (Max)” value (DR 2 (reproducibility, separate day)) was 5.95 and the “RR (Max)” value (DR 3 (reproducibility, separate day)) was 5.99. For the same compound, the “RR (Max)” value (Fresh cells taken from culture) was 5.99, the “RR (Max)” value (Frozen cells thawed immediately before use) was 2.48 and the EC50 [1] was 0.162 ng/mL (≈ 0.364 nM). It also gave an EC50 [2] of 0.151 ng/mL (≈ 0.34 nM), an EC50 [3] of 0.172 ng/mL (≈ 0.388 nM) and an EC50 (16 h, 0.0% DMSO, 10,000 cells/well) of 0.159 ng/mL (≈ 0.358 nM). The EC50 (16 h, 0.25% DMSO, 10,000 cells/well) was 0.197 ng/mL (≈ 0.444 nM), the EC50 (16 h, 0.50% DMSO, 10,000 cells/well) was 0.172 ng/mL (≈ 0.388 nM) and the EC50 (16 h, 1.00% DMSO, 10,000 cells/well) was 0.187 ng/mL (≈ 0.422 nM). For the same compound, the EC50 (16 h, 1,250 cells/well, clone #20, 16 h, 0.5% DMSO) was 0.305 ng/mL (≈ 0.687 nM), the EC50 (16 h, 2,500 cells/well, clone #20, 16 h, 0.5% DMSO) was 0.216 ng/mL (≈ 0.485 nM) and the EC50 (16 h, 5,000 cells/well, clone #20, 16 h, 0.5% DMSO) was 0.199 ng/mL (≈ 0.447 nM). It also gave an EC50 (16 h, 10,000 cells/well, clone #20, 16 h, 0.5% DMSO) of 0.291 ng/mL (≈ 0.655 nM), an EC50 (16 h, DR 1 (reproducibility, separate day), 10,000 cells/well, 0.5% DMSO) of 0.246 ng/mL (≈ 0.553 nM) and an EC50 (16 h, DR 2 (reproducibility, separate day), 10,000 cells/well, 0.5% DMSO) of 0.0963 ng/mL (≈ 0.217 nM). For the same compound, the EC50 (16 h, DR 3 (reproducibility, separate day), 10,000 cells/well, 0.5% DMSO) was 0.0533 ng/mL (≈ 0.12 nM), the EC50 (16 h, Fresh cells taken from culture, 10,000 cells/well) was 0.0533 ng/mL (≈ 0.12 nM) and the EC50 (16 h, Frozen cells thawed immediately before use, 10,000 cells/well, 16 h) was > 0.985 ng/mL. It also gave an EC50 (Average of DR 1-3) of 0.132 ng/mL (≈ 0.297 nM), an EC50 (antibiotic selected pool, 10,000 cells/well, 16 h stimulation, 2 h loading) of 1.6 ng/mL (≈ 3.6 nM) and an EC50 [4] of 0.05 ng/mL (≈ 0.113 nM). For the same compound, the “RR (Max)” value (antibiotic selected pool, 10,000 cells/well, 16 h stimulation) was 3.3, the “times more potent than tetracycline” value (antibiotic selected pool, 16 h) was ~30 times and the EC100 [4] was 2.2 ng/mL.
